Laboratory results published in patent US20260232753A1, “COMPOSITION FOR TREATING MACULAR DEGENERATION COMPRISING NOVEL PEPTIDE” (EYEBIOKOREA, INC., priority 2021, published 2026).
*1 amine or outer side, *2 acyl side, *3 side chain or, on linkers, in order; H or OH if unused. Where no end group is shown, it is not given here. [ ]: non-standard residue; d: D form. The star is where a group is joined. Pro(trans-4-NH2) = O=C([C@@H]1C[C@@H](N[*:3])CN1[*:1])[*:2]; Pro(4-methylene) = C=C1CN[C@H](C(=O)O)C1; Pro(cis-4-F) = O=C(O)[C@@H]1C[C@H](F)CN1; Pro(4,4-F2) = O=C(O)[C@@H]1CC(F)(F)CN1; Pro(4,4-Me2) = CC1(C)CN[C@H](C(=O)O)C1; Hyp = O=C(O)[C@@H]1C[C@@H](O)CN1; dHyp = O=C(O)[C@H]1C[C@H](O)CN1; Phg = N[C@H](C(=O)O)c1ccccc1; OiPr = CC(C)O*

Tests used:
[1] = test system: choroidal neovascularization (CNV); assay: Inhibition of choroidal neovascularization: fluorescence value (CTF) at the CNV site by FFA, laser-induced CNV model, intravitreal injection; format: in vivo, C57BL/6 mice; conditions: ten days after administration; for CTF (corrected total fluorescence) value: laser-induced CNV, 1 μL intravitreal, peptide 10 mg/mL or aflibercept 20 mg/mL, lower CTF = less CNV; for CNV inhibitory efficacy from fluorescence value of the CNV site (in words): intravitreal
From the text: (§1) The CNV animal model used in the present invention is a mouse model in which lesions are induced by irradiating a laser to the choroid of C57BL/6 mice using a laser slit system. The laser-induced CNV model, first described in 1979, uses photocoagulation to disturb Bruch's membrane to induce the growth of choroidal neovascularization into the retina area, and it is similar in development to neovascular disease in the human retina, that is, wet macular degeneration (wet AMD), in that neovascularity arises from the choroid. In addition, the laser-induced CNV model was successful in predicting the clinical efficacy of anti-vascular endothelial growth factor (VEGF) treatment for neovascular AMD, and is an animal model used in the development stage of existing therapeutic agents (Gong Y, Li J, Sun Y, Fu Z, Liu C H, Evans L, et al. (2015) Optimization of an Image-Guided Laser-Induced Choroidal Neovascularization Model in Mice. PLOS ONE 10 (7)).
(§2) In order to evaluate the efficacy of the peptide of the present invention to inhibit the choroidal neovascularization (CNV), an experiment was performed as follows.
(§3) The eyes of 7-8 week old C57BL/6 mice were instilled with a mydriatic agent to dilate the pupils, and the mice were anesthetized by intraperitoneal injection of ketamine (50 mg/kg) and rompun (23.32 mg/kg). A slit-lamp laser injection system was used to irradiate the laser to the choroid of each eye of the mouse four times in the 12 o'clock, 3 o'clock, 6 o'clock, and 9 o'clock directions. At this time, the laser irradiation conditions were 532 nm, 80 msec, and 240 mW. Immediately after laser irradiation, 1 μL of each peptide at a concentration of 10 mg/mL or aflibercept at a concentration of 20 mg/mL, which was dissolved in PBS, was injected into the vitreous body using a syringe. Ten days after drug administration, the mice were anesthetized, and 2% fluorescein was administered to the abdominal cavity to stain blood vessels. The retina was photographed 2 to 3 minutes after fluorescein administration. The size and fluorescence value of CNV lesions induced by laser were measured using the ImageJ program, and in order to reduce the differences between subjects, the CTF (corrected total fluorescence) was calculated by removing the background, and the values of each group were compared. The results of all tests are expressed as mean±standard deviation, and significance was verified using one-way ANOVA and Kruskal-wallis test.

[2] = Stability of the peptide: content analysis by HPLC in aqueous solution under harsh conditions; format: physicochemical
Description: In order to evaluate the stability of the peptide of the present invention, an experiment was performed as follows.
The stability of the peptide was confirmed through content analysis in an aqueous solution at 40° C., 75% humidity, and harsh conditions, and was analyzed using HPLC under the following conditions. • Analysis column: C18 (4.6 Y 250 mm, 5 μm, YMC Hydrosphere) • Analysis wavelength: ultraviolet absorption spectrophotometer (210 nm) • Injection volume/Flow rate: 10 μL/0.8 mL/min • Column temperature: 45° C. • Mobile phase: 0.1 M phosphate buffer methanol mixture (83:17)

[3] = test system: choroidal neovascularization (CNV); assay: Inhibition of choroidal neovascularization: optical coherence tomography, size of CNV lesion, intravitreal injection; format: in vivo, C57BL/6 mice; conditions: laser-induced CNV; 1 μL intravitreal, peptide 10 mg/mL or aflibercept 20 mg/mL; ten days after administration; OCT
From the text: as §1, §2
as §3, with “and” for “and 2% fluorescein was administered to”, “the” for “the abdominal cavity to stain blood vessels. The retina was photographed 2 to 3 minutes after fluorescein administration. The size and fluorescence value of”, “calculated and expressed as μm^2” for “measured”, “program” for “program, and in order to reduce the differences between subjects, the CTF (corrected total fluorescence) was calculated”, “transmitting an OCT beam for” for “removing the background, and the values of”, “burn.” for “group were compared.”

Substance	CTF (corrected total fluorescence) value [1]	also measured
[Hyp]G[dQ]DGLA [Example 18]	+ (+: 300,000 to 800,000)	–
Hyp-Gly-Gln-Glu-phenyl-Gly-Leu-Ala ([Hyp]GQE[Phg]LA) [Example 45]	+ (+: 300,000 to 800,000)	Content after 7 days ([2]; 40° C., 75% humidity, 7 days): 98.147%; Decrease rate ([2]; 40° C., 75% humidity, after 7 days): 0.439%; Initial content ([2]; HPLC, initial): 98.586%
Hyp-Gly-Gln-Asp-Gly-D-Leu-Ala ([Hyp]GQDG[dL]A) [Example 20]	+ (+: 300,000 to 800,000)	–
Hyp-Gly-Gln-Glu-Val-Leu ([Hyp]GQEVL) [Example 39]	+ (+: 300,000 to 800,000)	–
4,4-dimethyl Pro-Gly-Gln-Asp-Gly-Leu-Ala ([Pro(4,4-Me2)]GQDGLA; also: X1: 4,4-dimethyl-Pro (name) or 4-methylene-L-proline) [Example 35]	+ (+: 300,000 to 800,000)	–
Hyp-Gly-Gln-Asp-Ala-Leu-Ala ([Hyp]GQDALA) [Example 16]	+ (+: 300,000 to 800,000)	–
4-methylene-Pro-Gly-Gln-Asp-Gly-Leu-Ala ([Pro(4-methylene)]GQDGLA) [Example 34]	+ (+: 300,000 to 800,000)	Size of lesion [3]: 8,603 μm^2
4,4-difluoro-Pro-Gly-Gln-Asp-Gly ([Pro(4,4-F2)]GQDG) [Example 24]	+ (+: 300,000 to 800,000)	–
Hyp-Gly-Gln-Asp-Gly-Leu-D-Ala ([Hyp]GQDGL[dA]) [Example 21]	+ (+: 300,000 to 800,000)	–
Hyp-Gly-Gln-Asp-Leu-Leu ([Hyp]GQDLL) [Example 8]	++ (++: 200,000 to 300,000)	CNV inhibitory efficacy from fluorescence value of the CNV site (in words) [1]: very excellent inhibitory efficacy
D-Hyp-Gly-Gln-Asp-Gly-Leu-Ala ([dHyp]GQDGLA) [Example 32]	+ (+: 300,000 to 800,000)	–
Hyp-Gly-Gln-Asp-Val-Leu-Ala ([Hyp]GQDVLA) [Example 14]	++ (++: 200,000 to 300,000)	Size of lesion [3]: 5,407 μm^2; CNV inhibitory efficacy from fluorescence value of the CNV site (in words) [1]: very excellent inhibitory efficacy
Hyp-Gly-Gln-Asp-Leu-Leu-Ala ([Hyp]GQDLLA) [Example 15]	++ (++: 200,000 to 300,000)	Size of lesion [3]: 6,672 μm^2; CNV inhibitory efficacy from fluorescence value of the CNV site (in words) [1]: very excellent inhibitory efficacy
4-methylene-Pro-Gly-Gln-Asp-Gly-Leu ([Pro(4-methylene)]GQDGL) [Example 30]	+ (+: 300,000 to 800,000)	–
trans-4NH2-Pro-Gly-Gln-Asp-Gly-Leu ([Pro(trans-4-NH2)]GQDGL) [Example 28]	+ (+: 300,000 to 800,000)	–
4-methylene-Pro-Gly-Gln-Asp-Gly ([Pro(4-methylene)]GQDG) [Example 25]	+ (+: 300,000 to 800,000)	–
Hyp-Gly-Gln-Asp-Gly-D-Leu ([Hyp]GQDG[dL]) [Example 12]	+ (+: 300,000 to 800,000)	–
4,4-difluoro-Pro-Gly-Gln-Asp-Gly-Leu ([Pro(4,4-F2)]GQDGL) [Example 29]	+ (+: 300,000 to 800,000)	–
[Hyp]G[dQ]DGL [Example 10]	+ (+: 300,000 to 800,000)	–
cis-4F-Pro-Gly-Gln-Asp-Gly-Leu ([Pro(cis-4-F)]GQDGL) [Example 27]	+++ (+++: 100,000 to 200,000)	CNV inhibitory efficacy from fluorescence value of the CNV site (in words) [1]: very excellent inhibitory efficacy

Substance	CTF (corrected total fluorescence) value [1]	also measured
4,4-dimethyl Pro-Gly-Gln-Asp-Gly-Leu ([Pro(4,4-Me2)]GQDGL) [Example 31]	+ (+: 300,000 to 800,000)	–
[dHyp]GQDG [Example 6]	+ (+: 300,000 to 800,000)	–
Hyp-Gly-Gln-Glu-Leu-Leu ([Hyp]GQELL) [Example 38]	+ (+: 300,000 to 800,000)	–
cis-4F-Pro-Gly-Gln-Asp-Gly ([Pro(cis-4-F)]GQDG) [Example 22]	+ (+: 300,000 to 800,000)	–
Hyp-Gly-Gln-Asp-Val-Leu ([Hyp]GQDVL) [Example 7]	++ (++: 200,000 to 300,000)	Size of lesion [3]: 6,046 μm^2; CNV inhibitory efficacy from fluorescence value of the CNV site (in words) [1]: very excellent inhibitory efficacy
Hyp-Gly-Gln-Asp-Val ([Hyp]GQDV) [Example 1]	+++ (+++: 100,000 to 200,000)	Size of lesion [3]: 5,636 μm^2; CNV inhibitory efficacy from fluorescence value of the CNV site (in words) [1]: very excellent inhibitory efficacy
[Hyp]GQ[dD]GLA [Example 19]	+ (+: 300,000 to 800,000)	–
Hyp-Gly-Gln-D-Asp-Gly-Leu ([Hyp]GQ[dD]GL) [Example 11]	+ (+: 300,000 to 800,000)	–
[Hyp]G[dQ]DG [Example 4]	+ (+: 300,000 to 800,000)	–
Hyp-Gly-Gln-Asp-Gly-Leu-Ala-IPE ([Hyp]GQDGLA-OiPr) [Example 17]	++ (++: 200,000 to 300,000)	Size of lesion [3]: 5,978 μm^2; CNV inhibitory efficacy from fluorescence value of the CNV site (in words) [1]: very excellent inhibitory efficacy
Hyp-Gly-Gln-Asp-Ala-Leu ([Hyp]GQDAL) [Example 9]	++ (++: 200,000 to 300,000)	CNV inhibitory efficacy from fluorescence value of the CNV site (in words) [1]: very excellent inhibitory efficacy
4,4-dimethyl Pro-Gly-Gln-Asp-Gly ([Pro(4,4-Me2)]GQDG) [Example 26]	+ (+: 300,000 to 800,000)	–
Hyp-Gly-Gln-Glu-Gly ([Hyp]GQEG) [Example 36]	+ (+: 300,000 to 800,000)	–
trans-4NH2-Pro-Gly-Gln-Asp-Gly ([Pro(trans-4-NH2)]GQDG) [Example 23]	++ (++: 200,000 to 300,000)	CNV inhibitory efficacy from fluorescence value of the CNV site (in words) [1]: very excellent inhibitory efficacy
[Hyp]GQ[dD]G [Example 5]	+ (+: 300,000 to 800,000)	–
D-Hyp-Gly-Gln-Asp-Gly-Leu ([dHyp]GQDGL) [Example 13]	++ (++: 200,000 to 300,000)	Size of lesion [3]: 6,395 μm^2; CNV inhibitory efficacy from fluorescence value of the CNV site (in words) [1]: very excellent inhibitory efficacy
Hyp-Gly-Gln-Asp-Ala ([Hyp]GQDA) [Example 3]	+ (+: 300,000 to 800,000)	Size of lesion [3]: 6,491 μm^2
Hyp-Gly-Gln-Asp-Leu ([Hyp]GQDL) [Example 2]	+ (+: 300,000 to 800,000)	–
cis-4F-Pro-Gly-Gln-Asp-Gly-Leu-Ala ([Pro(cis-4-F)]GQDGLA) [Example 33]	+ (+: 300,000 to 800,000)	–
